Measured values as given in ChEMBL document CHEMBL3351424, “Reversible ketomethylene-based inhibitors of human neutrophil proteinase 3” (J Med Chem, 2014).
The source made the active and inactive calls. The calls are words filed in the database; no cut-off is given here. Starred links: 1 amine or outer side, 2 acyl side, 3 side chain; linkers in the order of their positions; H or OH if unused. Non-standard residues stand in square brackets, D forms with d. Residues, ends and D or L forms follow the SMILES beside them. *: point of attachment. EDDnp = O=[N+]([O-])c1ccc(NCCN*)c([N+](=O)[O-])c1; X1 = CCC[C@H](N[*:1])C(=O)C[C@@H](C)C(=O)[*:2]; 2Abz = Nc1ccccc1C(=O)O

What was measured:
[1] = target: T1, Neutrophil elastase (Homo sapiens) (UniProt P08246); test: Inhibition of human NE using MeOSuc-AAPV-AMC as substrate after 30 mins by fluorescence assay
T1 sequence (whole entry): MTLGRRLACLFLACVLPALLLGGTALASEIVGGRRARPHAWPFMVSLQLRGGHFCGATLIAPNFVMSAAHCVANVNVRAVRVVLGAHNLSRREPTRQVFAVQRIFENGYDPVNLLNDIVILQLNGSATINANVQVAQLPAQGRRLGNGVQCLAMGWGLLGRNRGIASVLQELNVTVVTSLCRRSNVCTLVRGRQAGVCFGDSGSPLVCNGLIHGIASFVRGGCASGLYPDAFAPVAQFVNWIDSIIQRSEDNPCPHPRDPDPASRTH

[2] = target: T2, Myeloblastin (Homo sapiens) (UniProt P24158); test: Inhibition of human PR3 using N-EY-FRET as substrate at 6 uM after 20 mins by fluorescence assay
T2 sequence (whole entry): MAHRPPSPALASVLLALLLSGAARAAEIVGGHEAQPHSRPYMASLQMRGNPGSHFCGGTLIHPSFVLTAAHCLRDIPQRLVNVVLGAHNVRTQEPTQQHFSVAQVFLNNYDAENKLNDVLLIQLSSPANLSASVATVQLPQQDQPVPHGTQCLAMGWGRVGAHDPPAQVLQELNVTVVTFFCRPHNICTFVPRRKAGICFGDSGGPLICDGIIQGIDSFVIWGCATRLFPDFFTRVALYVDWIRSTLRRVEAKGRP

Myeloblastin = target: T3, Myeloblastin (Homo sapiens, UniProt P24158); test: Inhibition of human PR3 using D-DY-FRET as substrate after 30 mins by HPLC analysis
T3 sequence (P24158 whole entry): T2 sequence (whole entry)

[3] = target: T1, Neutrophil elastase (Homo sapiens); test: Inhibition of human NE using MeOSuc-AAPV-AMC as substrate at 6 uM after 30 mins by fluorescence assay

CCC[C@H](NC(=O)[C@H](CO)NC(=O)[C@H](C)NC(=O)[C@@H](NC(=O)c1ccccc1N)C(C)C)C(=O)C[C@@H](C)C(=O)N[C@@H](CCC(=O)O)C(=O)N[C@@H](CCCNC(=N)N)C(=O)N[C@@H](CCC(N)=O)C(=O)NCCNc1ccc([N+](=O)[O-])cc1[N+](=O)[O-] (H-[2Abz]VAS[X1]ERQ-EDDnp)
inhibition [1]: inactive

O=S(=O)(F)Cc1ccccc1 [PHENYLMETHYLSULFONYLFLUORIDE]
inhibition [2]: 20%
IC50 (Myeloblastin): 19.2 µM
inhibition [3]: 20%
